The record followed here is ChEMBL document CHEMBL1201862, “PubChem BioAssay data set” (2004).

What all share (assay): NCI-60 cell line screen, 48 h
Assay [1] deals with IGROV-1.
The subject of assay [2] is HT-29.
Assay [3] concerns COLO 205.
Assay [4] concerns M14.
Assay [5] concerns NCI/ADR-RES.
In assay [6] the test system is BT-549.
The subject of assay [7] is RXF 393.
Assay [8] deals with SNB-19.
In assay [9] the test system is TK-10.
Assay [10] deals with UACC-62.
For assay [11], the system named is MDA-MB-435.
Assay [12] relates to NCI-H226.
Assay [13] relates to OVCAR-4.
For assay [14], the system named is UACC-257.
For assay [15], the system named is MDA-MB-231.
The test system of assay [16] is A498.
For assay [17], the system named is A549.
Assay [18] deals with 786-0.
Assay [19] relates to MDA-N.

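Protocol summary: plate cells (96-well), add compound at 5 concentrations, incubate 48 h, interpolate endpoints linearly. At the GI50, growth is halved.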 Calls of active or inactive are those of the source. Rule as the data show it: active = GI50 up to about 1.1 µM and inactive = higher.

Take `O=C1Oc2ccccc2C(=O)/C1=C1/C=C(c2ccccc2)SS1`: the GI50 in [1] is 86.5 µM (inactive); in [2], 40.6 µM (inactive); in assay [3] it was 57.5 µM (inactive); in [4], 43.8 µM (inactive); in assay [5], 60.1 µM (inactive); in assay [6] it was > 100 µM (inactive). Moreover, the GI50 in assay [7] is 63.2 µM (inactive); in [8], 81.8 µM (inactive); in [9] it was > 100 µM (inactive); in [10], 82.8 µM (inactive); in assay [11] it was 48.9 µM (inactive); in assay [12] it was 24.3 µM (inactive). Moreover, the GI50 in [13] is 91 µM (inactive); in assay [14], > 100 µM (inactive); in assay [15] it was 80.4 µM (inactive); in assay [16], > 100 µM (inactive); in assay [17], > 100 µM (inactive); in assay [18], > 100 µM (inactive). The GI50 in assay [19] was 34.8 µM (inactive).

On to `Cc1ccc(Cc2nn(C)c(=O)n2-n2cccc2)cc1`, for which the GI50 in assay [1], in assay [2], in [3], in [4], in assay [5] and in assay [6] was > 100 µM (inactive) each time. Moreover, the GI50 in assay [7], in [8], in [9], in [10], in assay [11] and in assay [12] was > 100 µM (inactive) throughout. The GI50 is > 100 µM (inactive) in assay [13]; 56.8 µM (inactive) in [14]; > 100 µM (inactive) in assay [15]; > 100 µM (inactive) in assay [16]; > 100 µM (inactive) in [17]; > 100 µM (inactive) in assay [18]. In assay [19], the GI50 was > 100 µM (inactive).

`COc1nn(Cc2ccccn2)c2ccc([N+](=O)[O-])cc12`: the GI50 in assay [1] was 35.1 µM (inactive); in assay [2] it was 70.6 µM (inactive); in [3], > 100 µM (inactive); in [4] it was > 100 µM (inactive); in assay [5], 64.4 µM (inactive); in assay [6], 44.4 µM (inactive). Further, the GI50 in [7] is 42.4 µM (inactive); in [8], > 100 µM (inactive); in [9], 53.1 µM (inactive); in [10], 38.3 µM (inactive); in assay [11], 32.7 µM (inactive); in assay [12] it was 85.9 µM (inactive). In addition, the GI50 in assay [13] is > 100 µM (inactive); in assay [14] it was 94 µM (inactive); in [15] it was 57.4 µM (inactive); in assay [16], 30.3 µM (inactive); in assay [17], > 100 µM (inactive); in assay [18], > 100 µM (inactive). For the same compound, the GI50 in assay [19] is 27.8 µM (inactive).

In the case of `CCOC(=O)c1cc(NC(=O)c2ccccc2)c(=O)n2c(cc3c(Cl)cccc32)c1O`, the GI50 in [1], in assay [2], in assay [3], in assay [4], in assay [5] and in [6] was > 100 µM (inactive) in each case. In addition, the GI50 in [7], in assay [8], in assay [9], in [10], in assay [11] and in assay [12] was > 100 µM (inactive) in each case. The GI50 in [13], in assay [14], in assay [15], in [16], in assay [17] and in [18] was > 100 µM (inactive) throughout. The GI50 in assay [19] is > 100 µM (inactive).

Turning to `CCC1CCN/C(=N/S(=O)(=O)c2cc(C)c(Cl)cc2S)N1` (centres undefined), the GI50 in assay [1] is 24.2 µM (inactive); in assay [2], 30.1 µM (inactive); in [3], 39.2 µM (inactive); in [4], 35.7 µM (inactive); in [5], 38.7 µM (inactive); in assay [6] it was 17.7 µM (inactive). Moreover, the GI50 in assay [7] is 76.2 µM (inactive); in [8] it was 30.2 µM (inactive); in [9], 37.7 µM (inactive); in assay [10], 14 µM (inactive); in assay [11], 22.9 µM (inactive); in [12], 26.7 µM (inactive). Moreover, the GI50 in assay [13] was 24.3 µM (inactive); in assay [14], 42.9 µM (inactive); in [15], 44.8 µM (inactive); in assay [16], > 100 µM (inactive); in [17], > 100 µM (inactive); in assay [18] it was 33.5 µM (inactive). For the same compound, the GI50 in assay [19] is 33 µM (inactive).

As to `Cc1cc(Cc2c(C)c(C)c(Cc3cc(C)cc(C(C)(C)C)c3O)c(C)c2C)c(O)c(C(C)(C)C)c1`, the GI50 in assay [1], in assay [2], in [3], in assay [4], in [5] and in assay [6] was > 100 µM (inactive) each time. For the same compound, the GI50 in [7], in [8], in [9], in [10], in assay [11] and in [12] was > 100 µM (inactive) throughout. Besides, the GI50 in assay [13], in assay [14], in [15], in assay [16], in [17] and in [18] was > 100 µM (inactive) throughout. Further, the GI50 in assay [19] is > 100 µM (inactive).

For the compound `c1ccc(C2C3=C(c4ccccc4CC3)N3c4cc5c(cc4=NC34CCCCC24)Nc2ccccc2N=5)cc1` (centres undefined), the GI50 in assay [1] is > 10 µM (inactive); in [2] it was 7.87 µM (inactive); in [3], > 10 µM (inactive); in assay [4], 6.61 µM (inactive); in assay [5] it was 6.79 µM (inactive); in [6], > 10 µM (inactive). The GI50 is 6.59 µM (inactive) in assay [7]; > 10 µM (inactive) in [8]; > 10 µM (inactive) in [9]; > 10 µM (inactive) in assay [10]; 7.28 µM (inactive) in assay [11]; 6.58 µM (inactive) in assay [12]. Also, the GI50 is 5.79 µM (inactive) in assay [13]; > 10 µM (inactive) in [14]; 9.79 µM (inactive) in assay [15]; 7.38 µM (inactive) in assay [16]; > 10 µM (inactive) in [17]; 7.14 µM (inactive) in assay [18]. Further, the GI50 in [19] was 5.83 µM (inactive).

Regarding `COc1cccc(-c2cc(O)c3cccnc3n2)c1`, the GI50 was 0.432 µM (active) in [1]; 0.0543 µM (active) in assay [2]; 0.0771 µM (active) in assay [3]; 0.0575 µM (active) in assay [4]; 0.0617 µM (active) in [5]; > 100 µM (inactive) in [6]. In addition, the GI50 was 0.229 µM (active) in assay [7]; 0.213 µM (active) in assay [8]; > 100 µM (inactive) in assay [9]; 0.0662 µM (active) in [10]; 0.0164 µM (active) in [11]; 0.325 µM (active) in [12]. The GI50 in assay [13] was > 40.5 µM (inactive); in assay [14] it was > 100 µM (inactive); in assay [15], 1.27 µM (inactive); in assay [16], 0.516 µM (active); in [17], 0.102 µM (active); in [18], 0.165 µM (active). Also, the GI50 in [19] was 0.0159 µM (active).

For the compound `COC(=O)c1cc(OS(=O)(=O)C(F)(F)F)c(=O)n2c1CCCC2`, the GI50 in assay [1], in [2], in [3], in [4], in assay [5] and in assay [6] was > 100 µM (inactive) each time. Also, the GI50 is > 100 µM (inactive) in [7]; > 100 µM (inactive) in assay [8]; > 100 µM (inactive) in assay [9]; 86.3 µM (inactive) in assay [10]; > 100 µM (inactive) in [11]; 9.2 µM (inactive) in assay [12]. Further, the GI50 in assay [13], in assay [14], in assay [15], in [16], in [17] and in assay [18] was > 100 µM (inactive) each time. Further, the GI50 in [19] was > 100 µM (inactive).

In the case of `N#CCCN(CCNc1ccccc1)C(=O)Nc1ccc(NC(=O)N(CCC#N)CCNc2ccccc2)cc1`, the GI50 was > 100 µM (inactive) in [2]; > 100 µM (inactive) in [3]; > 100 µM (inactive) in assay [4]; > 63.8 µM (inactive) in [5]; > 38.5 µM (inactive) in assay [6]; > 45.3 µM (inactive) in assay [7]. The GI50 is > 100 µM (inactive) in assay [8]; > 61.4 µM (inactive) in assay [9]; > 100 µM (inactive) in [10]; > 100 µM (inactive) in [11]; > 73.5 µM (inactive) in [12]; 24.7 µM (inactive) in [13]. Further, the GI50 in assay [14] is > 100 µM (inactive); in assay [15], > 100 µM (inactive); in assay [16], > 100 µM (inactive); in assay [17], > 100 µM (inactive); in [18], > 68.9 µM (inactive); in assay [19] it was > 100 µM (inactive).
